In ChEMBL document CHEMBL2163302, “Allyl m-trifluoromethyldiazirine mephobarbital: an unusually potent enantioselective and photoreactive barbiturate general anesthetic” (J Med Chem, 2012):
≈ marks a conversion by molar mass, not a printed value.

Experiments:
[1] = test system: Xenopus laevis; test: Anesthetic activity in Xenopus laevis tadpoles assessed as loss of righting reflexes; type: functional, organism-based; conditions: Tadpole
[2] = molecular target: T1, Gamma-aminobutyric acid receptor subunit alpha-1 (Homo sapiens) (UniProt P14867); conditions: HEK293S, 200 uM
T1 sequence (whole entry): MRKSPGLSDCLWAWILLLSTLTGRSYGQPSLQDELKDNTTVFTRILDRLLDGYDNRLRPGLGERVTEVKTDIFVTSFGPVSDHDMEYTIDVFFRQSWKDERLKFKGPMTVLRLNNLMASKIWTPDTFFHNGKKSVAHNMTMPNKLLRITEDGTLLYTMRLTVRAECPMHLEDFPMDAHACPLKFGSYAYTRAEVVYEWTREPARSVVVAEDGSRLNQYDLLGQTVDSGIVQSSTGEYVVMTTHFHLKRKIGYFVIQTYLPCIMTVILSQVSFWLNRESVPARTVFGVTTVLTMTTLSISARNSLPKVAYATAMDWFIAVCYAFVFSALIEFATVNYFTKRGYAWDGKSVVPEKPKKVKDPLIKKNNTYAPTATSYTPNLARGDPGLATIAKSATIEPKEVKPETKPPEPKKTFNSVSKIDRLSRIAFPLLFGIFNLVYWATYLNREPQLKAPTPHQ

[3] = molecular target: T2, Gamma-aminobutyric acid receptor subunit beta-3 (Homo sapiens) (UniProt P28472); conditions: HEK293S, 200 uM
T2 sequence (whole entry): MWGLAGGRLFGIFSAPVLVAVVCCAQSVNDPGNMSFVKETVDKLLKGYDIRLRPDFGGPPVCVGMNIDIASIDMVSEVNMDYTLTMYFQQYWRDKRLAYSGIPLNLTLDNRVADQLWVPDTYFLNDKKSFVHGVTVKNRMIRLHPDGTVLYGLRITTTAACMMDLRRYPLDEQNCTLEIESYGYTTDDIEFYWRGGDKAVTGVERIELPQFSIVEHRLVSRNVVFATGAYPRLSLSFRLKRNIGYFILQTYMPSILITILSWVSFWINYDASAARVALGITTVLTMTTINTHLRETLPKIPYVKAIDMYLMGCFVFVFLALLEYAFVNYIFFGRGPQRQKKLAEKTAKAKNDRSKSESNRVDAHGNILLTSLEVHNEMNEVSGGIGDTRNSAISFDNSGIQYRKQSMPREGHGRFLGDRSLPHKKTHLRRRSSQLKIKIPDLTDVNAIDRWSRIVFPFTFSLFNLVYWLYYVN

[4] = molecular target: GABA-A receptor; alpha-1/beta-2/gamma-2 (Homo sapiens) (UniProt P14867+P47870+P18507); conditions: Oocyte, 80 uM
[5] = Stability in 0.01 M Tris/HCl buffer at pH 7.4 at 4 degC days by HPLC; type: physicochemical
[6] = Aqueous solubility in 0.01 M Tris/HCl buffer at pH 7.4 by HPLC; type: physicochemical
[7] = molecular target: T3, Gamma-aminobutyric acid receptor subunit beta-3 (Homo sapiens, UniProt P28472); test: biochemical
T3 sequence (P28472 whole entry): T2 sequence (whole entry)

**Q.** Which EC50 [1] does the source give for `C=CC[C@@]1(c2cccc(C3(C(F)(F)F)N=N3)c2)C(=O)NC(=O)N(C)C1=O` here?
**A.** 3.7 µM

**Q.** What about the inhibition [2] of the same compound?
**A.** > 90%

**Q.** And the inhibition [3]?
**A.** > 90%

**Q.** For `C=CC[C@]1(c2cccc(C3(C(F)(F)F)N=N3)c2)C(=O)NC(=O)N(C)C1=O`, which EC50 [1] is on record?
**A.** 38 µM

**Q.** And the inhibition [4]?
**A.** 40%

**Q.** With `C=CCC1(c2cccc(C3(C(F)(F)F)N=N3)c2)C(=O)NC(=O)N(C)C1=O` (racemic) as the compound, how does the Stability [5] read?
**A.** 2.5 days

**Q.** What about the solubility ([6]; buffer) of the same compound?
**A.** 80 µM (≈ 29.3 µg/mL)

**Q.** With `CCC1(c2ccccc2)C(=O)NC(=O)N(C)C1=O` (stereo not given) [MEPHOBARBITAL] as the compound, how does the solubility ([6]; 0.01 M Tris/HCl buffer, read-out: solubility) read?
**A.** 600 µM (≈ 148 µg/mL)

**Q.** Which EC50 [1] does the source give for `CCCC(C)C1(CC)C(=O)NC(=O)NC1=O` (stereo not given) [PENTOBARBITAL] here?
**A.** 65 µM

**Q.** And the IC50 [7]?
**A.** 88 µM
